# According to US8829026B2, “Sulfamoyl benzoic acid heterobicyclic derivatives as TRPM8 antagonists” (RaQualia Pharma Inc., priority 2010, dated 2014):
# Target: T1, human TRPM8 (Homo sapiens, UniProt Q7Z2W7)
# T1 construct: expressed in transfected cells
# Assay: Menthol-induced Ca2+ influx in HEK293 cells stably expressing human TRPM8
# Assay type: cell-based
# Details: 30 microM menthol-induced Ca2+ influx, HEK293 cells stably expressing human TRPM8, 11-point dose-response
# Experimental: Measurement of the Menthol-Induced Ca^2+ Influx in HEK293 Cells Stably Expressing Human TRPM8
# A cell-based Ca^2+ influx assay using HEK293 cells stably expressing human TRPM8 was used to identify the activity of compounds.
# HEK293 cells stably expressing human TRPM8 were grown in T175 flasks at 37° C. in a 5% CO2 humidified incubator to about 80% confluence. Media composition consisted of Dulbecco's Modified Eagle Medium (high glucose), 10% fetal calf serum (FCS), 100 units/ml Penicillin, 100 microg/ml Streptomycin and 600 microg/ml Geneticine. At 24 hours prior to assay, cells were seeded in poly-D-lysine coated 384-well plates (BD FALCON) at a density of 30,000 cells per well in culture medium and grown overnight in 5% CO2 at 37° C. On the assay day, growth media was removed and cells were loaded with 0.5 microM Fluo4-AM (Molecular Probes) and 0.005% Pluronic F-127 dissolved in assay buffer (Hank's balanced salt solution (HBSS), 19.4 mM HEPES pH7.4, 2.5 mM Probenecid) for 1 hour at room temperature. After washing with assay buffer, the cells were preincubated with various concentrations of the compounds for 5 min. The changes in intracellular calcium concentration by addition of 30 microM menthol were monitored by the cell imaging technology by Hamamatsu Photonics's Functional Drug Screening System (FDSS).
# The IC50 values for compounds of the present invention were determined from 11-point dose-response studies. Curves were generated using the average of duplicate wells for each data point. Finally, the IC50 values are calculated with the best-fit dose curve determined by XLfit (ID Business Solutions Ltd.).
# T1 sequence (Q7Z2W7 whole entry): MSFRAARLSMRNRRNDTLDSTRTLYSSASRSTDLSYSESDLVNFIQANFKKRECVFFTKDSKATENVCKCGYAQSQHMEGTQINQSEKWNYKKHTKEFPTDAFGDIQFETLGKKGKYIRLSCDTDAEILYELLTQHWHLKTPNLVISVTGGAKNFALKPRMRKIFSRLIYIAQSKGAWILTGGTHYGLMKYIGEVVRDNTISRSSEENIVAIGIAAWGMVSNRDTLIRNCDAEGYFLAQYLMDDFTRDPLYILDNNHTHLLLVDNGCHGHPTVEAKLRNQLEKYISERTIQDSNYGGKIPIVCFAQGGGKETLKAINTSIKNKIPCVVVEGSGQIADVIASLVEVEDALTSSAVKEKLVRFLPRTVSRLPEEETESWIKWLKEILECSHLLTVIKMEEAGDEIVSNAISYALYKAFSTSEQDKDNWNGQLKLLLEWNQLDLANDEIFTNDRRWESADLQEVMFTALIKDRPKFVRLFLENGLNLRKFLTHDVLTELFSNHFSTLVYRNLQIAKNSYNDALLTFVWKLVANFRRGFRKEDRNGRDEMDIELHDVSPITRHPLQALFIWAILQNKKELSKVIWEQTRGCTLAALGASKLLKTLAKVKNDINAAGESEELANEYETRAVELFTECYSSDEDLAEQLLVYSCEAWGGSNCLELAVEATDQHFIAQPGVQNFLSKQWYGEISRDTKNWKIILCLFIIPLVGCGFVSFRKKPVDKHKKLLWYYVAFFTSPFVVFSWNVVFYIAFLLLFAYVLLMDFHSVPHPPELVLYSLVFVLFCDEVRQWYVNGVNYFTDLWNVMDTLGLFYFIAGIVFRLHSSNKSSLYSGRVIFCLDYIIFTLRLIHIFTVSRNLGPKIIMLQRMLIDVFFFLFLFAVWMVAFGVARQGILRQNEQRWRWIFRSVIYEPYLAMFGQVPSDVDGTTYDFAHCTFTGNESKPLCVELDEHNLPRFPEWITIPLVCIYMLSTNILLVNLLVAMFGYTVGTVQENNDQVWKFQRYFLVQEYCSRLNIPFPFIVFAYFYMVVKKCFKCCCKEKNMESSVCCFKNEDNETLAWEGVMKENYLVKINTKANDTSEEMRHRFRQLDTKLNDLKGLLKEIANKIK
row,SMILES,IC50 [µM]
1,"Cn1ncc2cc(CN(c3ncc(C(F)(F)F)cc3Cl)S(=O)(=O)c3ccc(C(=O)O)cc3)ccc21 [Example 3, 4-(N-(3-Chloro-5-(trifluoromethyl)pyridin-2-yl)-N-((1-methyl-1H-indazol-5-yl)methyl)sulfamoyl)benzoic acid]",< 1
2,"CCc1cc(C(=O)O)ccc1S(=O)(=O)N(Cc1ccc2c(cnn2C)c1)c1ncc(C(F)(F)F)cc1Cl [Example 4, 4-(N-(3-Chloro-5-(trifluoromethyl)pyridin-2-yl)-N-((1-methyl-1H-indazol-5-yl)methyl)sulfamoyl)-3-ethylbenzoic acid]",< 1
3,"O=C(O)c1ccc(S(=O)(=O)N(Cc2ccc3occc3c2)c2ncc(Cl)cc2Cl)cc1 [Example 5, 4-(N-(Benzofuran-5-ylmethyl)-N-(3,5-dichloropyridin-2-yl)sulfamoyl)benzoic acid]",< 1
4,"Cn1ccc2cc(CN(c3ncc(C(F)(F)F)cc3Cl)S(=O)(=O)c3ccc(C(=O)O)cc3)ccc21 [Example 6, 4-(N-(3-Chloro-5-(trifluoromethyl)pyridin-2-yl)-N-((1-methyl-1H-indol-5-yl)methyl)sulfamoyl)benzoic acid]",< 1
5,"Cn1ccc2cc(CN(c3ncc(Cl)cc3Cl)S(=O)(=O)c3ccc(C(=O)O)cc3)ccc21 [Example 7, 4-(N-(3,5-Dichloropyridin-2-yl)-N-((1-methyl-1H-indol-5-yl)methyl)sulfamoyl)benzoic acid]",< 1
6,"Cn1ccc2cc(CN(c3ncc(C(F)(F)F)cc3Cl)S(=O)(=O)c3ccc(C(=O)O)cc3Cl)ccc21 [Example 8, 3-Chloro-4-(N-(3-chloro-5-(trifluoromethyl)pyridin-2-yl)-N-((1-methyl-1H-indol-5-yl)methyl)sulfamoyl)benzoic acid]",< 1
7,"Cn1ccc2cc(CN(c3ncc(Cl)cc3Cl)S(=O)(=O)c3ccc(C(=O)O)cc3Cl)ccc21 [Example 9, 3-Chloro-4-(N-(3,5-dichloropyridin-2-yl)-N-((1-methyl-1H-indol-5-yl)methyl)sulfamoyl)benzoic acid]",< 1
8,"O=C(O)c1ccc(S(=O)(=O)N(Cc2ccc3ccoc3c2)c2ncc(Cl)cc2Cl)cc1 [Example 10, 4-(N-(Benzofuran-6-ylmethyl)-N-(3,5-dichloropyridin-2-yl)sulfamoyl)benzoic acid]",< 1
9,"Cc1cc(C(=O)O)ccc1S(=O)(=O)N(Cc1ccc2c(ccn2C)c1)c1ncc(C(F)(F)F)cc1Cl [Example 11, 4-(N-(3-Chloro-5-(trifluoromethyl)pyridin-2-yl)-N-((1-methyl-1H-indol-5-yl)methyl)sulfamoyl)-3-methylbenzoic acid]",< 1
10,"Cc1cc(C(=O)O)ccc1S(=O)(=O)N(Cc1ccc2c(ccn2C)c1)c1ncc(Cl)cc1Cl [Example 12, 4-(N-(3,5-Dichloropyridin-2-yl)-N-((1-methyl-1H-indol-5-yl)methyl)sulfamoyl)-3-methylbenzoic acid]",< 1
11,"CCn1cc2cc(CN(c3ncc(C(F)(F)F)cc3Cl)S(=O)(=O)c3ccc(C(=O)O)cc3)ccc2n1 [Example 13, 4-(N-(3-Chloro-5-(trifluoromethyl)pyridin-2-yl)-N-((2-ethyl-2H-indazol-5-yl)methyl)sulfamoyl)benzoic acid]",< 1
12,"CCn1ncc2cc(CN(c3ncc(C(F)(F)F)cc3Cl)S(=O)(=O)c3ccc(C(=O)O)cc3Cl)ccc21 [Example 14, 3-Chloro-4-(N-(3-chloro-5-(trifluoromethyl)pyridin-2-yl)-N-((1-ethyl-1H-indazol-5-yl)methyl)sulfamoyl)benzoic acid]",< 1
13,"Cn1cc2cc(CN(c3ncc(C(F)(F)F)cc3Cl)S(=O)(=O)c3ccc(C(=O)O)cc3)ccc2n1 [Example 16, 4-(N-(3-Chloro-5-(trifluoromethyl)pyridin-2-yl)-N-((2-methyl-2H-indazol-5-yl)methyl)sulfamoyl)benzoic acid]",1 to 10
14,"Cn1ncc2ccc(CN(c3ncc(C(F)(F)F)cc3Cl)S(=O)(=O)c3ccc(C(=O)O)cc3)cc21 [Example 17, 4-(N-(3-Chloro-5-(trifluoromethyl)pyridin-2-yl)-N-((1-methyl-1H-indazol-6-yl)methyl)sulfamoyl)benzoic acid]",< 1
15,"Cn1cc2ccc(CN(c3ncc(C(F)(F)F)cc3Cl)S(=O)(=O)c3ccc(C(=O)O)cc3)cc2n1 [Example 18, 4-(N-(3-Chloro-5-(trifluoromethyl)pyridin-2-yl)-N-((2-methyl-2H-indazol-6-yl)methyl)sulfamoyl)benzoic acid]",1 to 10
16,"CCn1ncc2cc(CN(c3ncc(Cl)cc3Cl)S(=O)(=O)c3ccc(C(=O)O)cc3)ccc21 [Example 19, 4-(N-(3,5-Dichloropyridin-2-yl)-N-((1-ethyl-1H-indazol-5-yl)methyl)sulfamoyl)benzoic acid]",< 1
17,"COCCn1ncc2cc(CN(c3ncc(C(F)(F)F)cc3Cl)S(=O)(=O)c3ccc(C(=O)O)cc3)ccc21 [Example 20, 4-(N-(3-Chloro-5-(trifluoromethyl)pyridin-2-yl)-N-((1-(2-methoxyethyl)-1H-indazol-5-yl)methyl)sulfamoyl)benzoic acid]",< 1
18,"O=C(O)c1ccc(S(=O)(=O)N(Cc2ccc3c(cnn3C3CCOCC3)c2)c2ncc(C(F)(F)F)cc2Cl)cc1 [Example 21, 4-(N-(3-Chloro-5-(trifluoromethyl)pyridin-2-yl)-N-((1-(tetrahydro-2H-pyran-4-yl)-1H-indazol-5-yl)methyl)sulfamoyl)benzoic acid]",< 1
19,"CC(C)(O)Cn1ncc2cc(CN(c3ncc(C(F)(F)F)cc3Cl)S(=O)(=O)c3ccc(C(=O)O)cc3)ccc21 [Example 22, 4-(N-(3-Chloro-5-(trifluoromethyl)pyridin-2-yl)-N-((1-(2-hydroxy-2-methylpropyl)-1H-indazol-5-yl)methyl)sulfamoyl)benzoic acid]",1 to 10
20,"CCc1cc(C(=O)O)ccc1S(=O)(=O)N(Cc1ccc2c(cnn2C)c1)c1ncc(Cl)cc1Cl [Example 23, 4-(N-(3,5-Dichloropyridin-2-yl)-N-((1-methyl-1H-indazol-5-yl)methyl)sulfamoyl)-3-ethylbenzoic acid]",< 1
21,"Cn1ncc2cc(CN(c3ncc(Cl)cc3Cl)S(=O)(=O)c3ccc(C(=O)O)cc3Cl)ccc21 [Example 24, 3-Chloro-4-(N-(3,5-dichloropyridin-2-yl)-N-((1-methyl-1H-indazol-5-yl)methyl)sulfamoyl)benzoic acid]",< 1
22,"Cn1ncc2cc(CN(c3ncc(C(F)(F)F)cc3Cl)S(=O)(=O)c3ccc(C(=O)O)cc3Cl)ccc21 [Example 25, 3-Chloro-4-(N-(3-chloro-5-(trifluoromethyl)pyridin-2-yl)-N-((1-methyl-1H-indazol-5-yl)methyl)sulfamoyl)benzoic acid]",< 1
23,"Cc1cc(C(=O)O)ccc1S(=O)(=O)N(Cc1ccc2c(cnn2C)c1)c1ncc(C(F)(F)F)cc1Cl [Example 26, 4-(N-(3-Chloro-5-(trifluoromethyl)pyridin-2-yl)-N-((1-methyl-1H-indazol-5-yl)methyl)sulfamoyl)-3-methylbenzoic acid]",< 1
24,"Cc1cc(C(=O)O)ccc1S(=O)(=O)N(Cc1ccc2c(cnn2C)c1)c1ncc(Cl)cc1Cl [Example 27, 4-(N-(3,5-Dichloropyridin-2-yl)-N-((1-methyl-1H-indazol-5-yl)methyl)sulfamoyl)-3-methylbenzoic acid]",< 1
25,"O=C(O)c1ccc(S(=O)(=O)N(Cc2ccc3c(cnn3C3CC3)c2)c2ncc(C(F)(F)F)cc2Cl)cc1 [Example 28, 4-(N-(3-Chloro-5-(trifluoromethyl)pyridin-2-yl)-N-((1-cyclopropyl-1H-indazol-5-yl)methyl)sulfamoyl)benzoic acid]",< 1
26,"O=C(O)c1ccc(S(=O)(=O)N(Cc2ccc3c(cnn3C3CC3)c2)c2ncc(Cl)cc2Cl)cc1 [Example 29, 4-(N-((1-Cyclopropyl-1H-indazol-5-yl)methyl)-N-(3,5-dichloropyridin-2-yl)sulfamoyl)benzoic acid]",< 1
27,"Cn1nnc2cc(CN(c3ncc(C(F)(F)F)cc3Cl)S(=O)(=O)c3ccc(C(=O)O)cc3)ccc21 [Example 30, 4-(N-(3-Chloro-5-(trifluoromethyl)pyridin-2-yl)-N-((1-methyl-1H-benzo[d][1,2,3]triazol-5-yl)methyl)sulfamoyl)benzoic acid]",1 to 10
28,"O=C(O)c1ccc(S(=O)(=O)N(Cc2ccc3c(cnn3C3CC3)c2)c2ncc(C(F)(F)F)cc2Cl)c(Cl)c1 [Example 31, 3-Chloro-4-(N-(3-chloro-5-(trifluoromethyl)pyridin-2-yl)-N-((1-cyclopropyl-1H-indazol-5-yl)methyl)sulfamoyl)benzoic acid]",< 1
29,"O=C(O)c1ccc(S(=O)(=O)N(Cc2ccc3c(cnn3C3CC3)c2)c2ncc(Cl)cc2Cl)c(Cl)c1 [Example 32, 3-Chloro-4-(N-((1-cyclopropyl-1H-indazol-5-yl)methyl)-N-(3,5-dichloropyridin-2-yl)sulfamoyl)benzoic acid]",< 1
30,"Cc1cc(C(=O)O)ccc1S(=O)(=O)N(Cc1ccc2c(cnn2C2CC2)c1)c1ncc(C(F)(F)F)cc1Cl [Example 33, 4-(N-(3-Chloro-5-(trifluoromethyl)pyridin-2-yl)-N-((1-cyclopropyl-1H-indazol-5-yl)methyl)sulfamoyl)-3-methylbenzoic acid]",< 1
